# Laboratory results published in patent publication US11174260B2, “Compounds and methods for the treatment of parasitic diseases” (THE BROAD INSTITUTE, INC., priority 2017, dated 2021).
# pEC50: −log10 of the molar value.
# System: P. falciparum Dd2
# Experiment: In vitro P. falciparum blood-stage culture and assay
# Type: cell-based
# Conditions: 72 h incubation, SYBR Green I readout, read-out: Pf Dd2
# Procedure: Strains of P. falciparum (Dd2, 3D7, D6, K1, NF54, V1/3, HB3, 7G8, FCB and TM90C2B) were obtained from the Malaria Research and Reference Reagent Resource Center (MR4). P. falciparum isolates were maintained with O-positive human blood in an atmosphere of 93% N2, 4% CO2, 3% O2 at 37° C. in complete culturing medium (10.4 g/L RPMI 1640, 5.94 g/L HEPES, 5 g/L albumax II, 50 mg/L hypoxanthine, 2.1 g/L sodium bicarbonate, 10% human serum and 43 mg/L gentamicin). Parasites were cultured in medium until parasitaemia reached 3-8%. Parasitaemia was determined by checking at least 500 red blood cells from a Giemsa-stained blood smear. For the compound screening, a parasite dilution at 2.0% parasitaemia and 2.0% haematocrit was created with medium. 25 μl of medium was dispensed into 384-well black, clear-bottom plates and 100 nl of each compound in DMSO was transferred into assay plates along with the control compound (mefloquine). Next, 25 μl of the parasite suspension in medium was dispensed into the assay plates giving a final parasitaemia of 1% and a final haematocrit of 1%. The assay plates were incubated for 72 h at 37° C. 10 μl of detection reagent consisting of 10×SYBR Green I (Invitrogen; supplied in 10,000× concentration) in lysis buffer (20 mM Tris-HCl, 5 mM EDTA, 0.16% (w/v) Saponin, 1.6% (v/v) Triton X-100) was dispensed into the assay plates. For optimal staining, the assay plates were left at room temperature for 24 h in the dark. The assay plates were read with 505 dichroic mirrors with 485 nm excitation and 530 nm emission settings in an Envision (PerkinElmer).
row,Structure (SMILES),pEC50
1,"COc1ccc(NC(=O)N2CCC(O)CN3[C@H](CN(C)C)[C@H](c4ccc(C#Cc5ccccc5)cc4)[C@@H]3C2)cc1 (single isomer, unassigned) [Example E17]",> 7.30

# Same assay, conditions: Plasmodium falciparum, DD2, 72 h, 72 h incubation, SYBR Green I readout, read-out: Pf Dd2
row,Structure (SMILES),pEC50
1,"COc1ccc(NC(=O)N2C[C@@H](OC)[C@@H](OC)CN3[C@H](CN(C)C)[C@H](c4ccc(C#Cc5ccccc5)cc4)[C@@H]3C2)cc1 [Example E2, (3S,4R,8R,9S,10S)-10-((dimethylamino)methyl)-3,4-dimethoxy-N-(4-methoxyphenyl)-9-(4-(phenylethynyl)phenyl)-1,6-diazabicyclo[6.2.0]decane-6-carboxamide]",> 7.30
2,"COc1ccc(NC(=O)N2CCCC(C)N3[C@H](CN(C)C)[C@H](c4ccc(C#Cc5ccccc5)cc4)[C@@H]3C2)cc1 (stereo partly drawn) [Example E34, (8R,9S,10S)-10-((dimethylamino)methyl)-N-(4-methoxyphenyl)-2-methyl-9-(4-(phenylethynyl)phenyl)-1,6-diazabicyclo[6.2.0]decane-6-carboxamide]",> 7.30
3,"COc1ccc(NC(=O)N2CC(CN(C)C)CCN3[C@H](CN(C)C)[C@H](c4ccc(C#Cc5ccccc5)cc4)[C@@H]3C2)cc1 (stereo partly drawn) [Example E32, (8R,9S,10S)-4,10-bis[(dimethylamino)methyl]-N-(4-methoxyphenyl)-9-[4-(2-phenylethynyl)phenyl]-1,6-diazabicyclo[6.2.0]decane-6-carboxamide]",< 6.60
4,"COc1ccc(NC(=O)N2C[C@H](O)[C@H](O)CN3[C@H](CN(C)C(C)C)[C@H](c4ccc(C#Cc5ccccc5)cc4)[C@@H]3C2)cc1 [Example E11, (3R,4S,8R,9S,10S)-3,4-dihydroxy-10-[[isopropyl(methyl)amino]methyl]-N-(4-methoxyphenyl)-9-[4-(2-phenylethynyl)phenyl]-1,6-diazabicyclo[6.2.0]decane-6-carboxamide]",6.60 to 7.30
5,"COc1ccc(NC(=O)N2C[C@H](O)[C@H](O)CN3[C@H](CN(C)C)[C@H](c4ccc(C#Cc5ccccc5F)cc4)[C@@H]3C2)cc1 [Example E8, (3R,4S,8R,9S,10S)-10-[(dimethylamino)methyl]-9-[4-[2-(2-fluorophenyl)ethynyl]phenyl]-3,4-dihydroxy-N-(4-methoxyphenyl)-1,6-diazabicyclo[6.2.0]decane-6-carboxamide]",6.60 to 7.30
6,"COc1ccc(NC(=O)N2C[C@H](O)[C@H](O)CN3C[C@H](c4ccc(C#Cc5ccccc5)cc4)[C@@H]3C2)cc1 [Example E37, (3R,4S,8R,9S)-3,4-dihydroxy-N-(4-methoxyphenyl)-9-[4-(2-phenylethynyl)phenyl]-1,6-diazabicyclo[6.2.0]decane-6-carboxamide]",6.60 to 7.30
7,"CN(C)C[C@@H]1[C@H](c2ccc(C#Cc3ccccc3)cc2)[C@@H]2CN(C(=O)Nc3ccc(OC4CC4)cc3)C[C@H](O)[C@H](O)CN12 [Example E38, (3R,4S,8R,9S,10S)-N-(4-cyclopropoxyphenyl)-10-((dimethylamino)methyl)-3,4-dihydroxy-9-(4-(phenylethynyl)phenyl)-1,6-diazabicyclo[6.2.0]decane-6-carboxamide]",> 7.30
8,"COc1ccc(NC(=O)N2CC(CN(C)C)CCN3[C@H](CO)[C@H](c4ccc(C#Cc5ccccc5)cc4)[C@@H]3C2)cc1 (stereo partly drawn) [Example E31, (8R,9R,10S)-4-((dimethylamino)methyl)-10-(hydroxymethyl)-N-(4-methoxyphenyl)-9-(4-(phenylethynyl)phenyl)-1,6-diazabicyclo[6.2.0]decane-6-carboxamide]",< 6.60
